Target: T1, estrogen receptors (Homo sapiens, UniProt P03372)
T1 construct: expressed in transfected cells; host or cells: HELN-ERα cell line (HeLa-derived, per own knowledge of Escande et al. 2006)
T1 sequence (P03372 1-595): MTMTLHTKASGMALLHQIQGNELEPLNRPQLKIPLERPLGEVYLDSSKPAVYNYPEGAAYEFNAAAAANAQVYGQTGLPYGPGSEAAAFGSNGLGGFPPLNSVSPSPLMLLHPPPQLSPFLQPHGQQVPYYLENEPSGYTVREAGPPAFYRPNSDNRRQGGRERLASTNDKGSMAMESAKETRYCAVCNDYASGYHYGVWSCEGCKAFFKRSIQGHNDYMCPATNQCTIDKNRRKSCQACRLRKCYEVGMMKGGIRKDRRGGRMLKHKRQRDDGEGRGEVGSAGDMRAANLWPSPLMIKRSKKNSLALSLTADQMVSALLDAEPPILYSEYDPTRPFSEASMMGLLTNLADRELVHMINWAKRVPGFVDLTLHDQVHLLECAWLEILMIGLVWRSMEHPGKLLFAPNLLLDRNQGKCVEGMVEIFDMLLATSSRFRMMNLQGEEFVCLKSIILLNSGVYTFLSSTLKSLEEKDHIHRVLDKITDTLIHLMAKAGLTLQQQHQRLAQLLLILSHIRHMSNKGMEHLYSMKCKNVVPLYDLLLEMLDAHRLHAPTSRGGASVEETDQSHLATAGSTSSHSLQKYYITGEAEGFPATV
Assay: Test for toxicity with respect to estrogen receptors on the HELN-ERα cell line
Type: cell-based
Conditions: for interaction with estrogen receptors (% of antagonist activity with respect to estradiol (E2) at 10 nM): FIG. 12, result in words
Experimental: A test for toxicity with respect to estrogen receptors was carried out for the IDF, PDF, GDF and BDF macrobisphenols, according to the method set out in the publication by Molina-Molina et al., 2008 (Toxicol. Appl. Pharmacol., doi: 10.1016/j.taap.2008.07.017), on the HELN-ERα cell line, described in the publication by Escande et al., 2006 (Biochemical Pharmacology, 71, 1459-1469).
The results obtained, expressed as % of antagonist activity with respect to the activity of estradiol (E2) at 10 nM, as a function of the monomer concentration, are shown in FIG. 12.

SMILES | interaction with estrogen receptors (% of antagonist activity with respect to estradiol (E2) at 10 nM) | percentage activity with respect to the activity of estradiol (E2) at 10 nM (at 10^−5 M) [%] | percentage activity with respect to the activity of estradiol (E2) at 10 nM (at 10^−6 M) [%]
COc1cc(CCC(=O)OCCCCOC(=O)CCc2ccc(O)c(OC)c2)ccc1O [BDF, butane-1,4-di(dihydroferulate)] | interact only very little |  | 
COc1cc(CCC(=O)OCC(O)COC(=O)CCc2ccc(O)c(OC)c2)ccc1O [GDF, glycerol-3-di(dihydroferulate)] | interact only very little |  | 
COc1cc(CCC(=O)O[C@H]2CO[C@H]3[C@@H]2OC[C@H]3OC(=O)CCc2ccc(O)c(OC)c2)ccc1O [IDF, isosorbide-2,5-(dihydroferulate)] | interact only very little |  | 
COc1cc(CCC(=O)OCCCOC(=O)CCc2ccc(O)c(OC)c2)ccc1O [PDF, propane-1,3-di(dihydroferulate)] | interact only very little |  | 
CC(C)(c1ccc(O)cc1)c1ccc(O)cc1 [bisphenol A, reference compound] |  | 60 | 45
